Like-named read-outs stand apart in the source and are kept apart here.
Columns and labels:
ER [1] = test: ER degradation after RNF111 or UBR5 knockdown (reporter K562; T47D western); type: cell-based, human; details: K562 ER-GFP, shUBR5 / sgRNF111, Figure S8C, D
Protocol: (§1) Cells were analyzed for GFP vs mCherry expression.
Protein concentration was quantified via Pierce BCA Protein Assay Kit (ThermoFisher, 23225), and equal amounts of lysates were run on either SDS-PAGE 3–8% Tris-Acetate or 4–12% Bis-Tris Protein Gels (NuPAGE, ThermoFisher), then transferred to a PVDF membrane (Biorad, Wet Transfer System). Membranes were blocked for 30 minutes to 1 hour at room temperature in Odyssey Blocking Buffer/PBS (LI-COR Biosciences), and incubated with primary antibodies at 4 °C overnight. Stained membranes were washed three times in Tris-buffered saline with Tween 20 (TBS-T) and incubated for 1 hour at room temperature with secondary IRDye-conjugated antibodies (LI-COR Biosciences). Membranes were washed three times in TBS-T before imaging (Odyssey Imaging System, LI-COR Biosciences).

ER reporter = ER reporter degradation; type: cell-based, human; details: 1 μM (legend, SERDs)
Protocol: Reporter cell lines were seeded in triplicate at a density of 1 million cells/ml in 100 μl per well in a 96 well plate and measured once. Ligand was added by Digital Dispenser (Tecan), and incubated at 37°C for the appropriate time before reading by flow cytometry. Cells were analyzed for GFP vs mCherry expression. GFP expression was normalized to mCherry signal and ligand treatments were compared to DMSO controls.

[2] = tested on: ER reporter (E3 ligase dependence); test: Targeted CRISPR screens, ER reporter K562 cells: E3 ligase used; type: cell-based, human; details: for E3 ligase used for ER degradation: K562 ER reporter, CRISPR screen; for E3 Ligase (Table S2): Supplemental Table S2
Protocol: To characterize the UPS pathway components involved in SERD-induced ER degradation, we performed CRISPR screens with our ER reporter in the presence multiple SERDs: fulvestrant, GDC-0927, elacestrant, giredestrant, camizestrant, amcenestrant, AZD-9496, brilanestrant, and LSZ-102. […] Taken together, these findings indicate that different classes of SERDs engage distinct ubiquitin ligases and degradation pathways to target ER.
The UPS and tiling CRISPR functional genomics screen was performed following previously described methods.[22] Briefly, the UPS CRISPR library targets 713 E1, E2, E3 ubiquitin ligases, and deubiquitinases and includes controls genes with a total of 2852 guide RNAs, cloned into the pXPR003 backbone. The UBR5 Tiling screen was created by CRISPR-SURF.[29] Viruses were produced in a T-175 format and ten percent by volume of the library virus was added to reporter cell lines in triplicates for transduction. Transduced cells were allowed to recover and expand for nine days, then treated with indicated ligand. Top and bottom 5% of cells by GFP signal were sorted for a total of at least 100,000 cells per replicate. Samples were processed as previously described.[22]
Reporter cell lines were treated with ATRA or 9-cis RA, and then sorted into four populations by eGFP/mCherry fluorescence ratios (Gates A-D), corresponding to the bottom and top 5–10% respectively (Figure S1D).[22],[23] Sorted cells were pelleted, lysed, and processed according to previous studies.[22] Briefly sgRNAs were amplified in two PCRs via Titanium Taq (Takara Bio 639210), Titanium Taq Buffer and 800uM dNTP mix and eight staggered forward primers. The first PCR also contained 200 nM SBS3-Stagger-pXPR003 forward primer and 200 nM SBS12-pXPR003 reverse primer (cycles: 5 minutes at 94°C, 15 × (30 sec at 94°C, 15 sec at 58°C, 30 sec at 72°C), 2 minutes at 72°C). Illumina adapters and barcodes were added in the second PCR (200 nM P5-SBS3 forward primer, 200 nM P7-barcode-SBS12 reverse primer). Samples were pooled and purified by agarose gel-electrophoresis (Qiagen) and NaOAc/isopropanol precipitation. Amplified guides were quantified by next-generation sequencing (Genomics Platform, Broad Institute), and analyzed for enrichment in Gate A over Gate D, representing degradation rescue.

UBR5-RARA = test: In vitro FLAG-UBR5 pull-down of His-tagged RARA; type: binding, human; details: 50 μM ligand, anti-His western, 25 mM HEPES pH 7.4, 125 mM NaCl, 0.05% TWEEN-20
Protocol: 12 μL of FLAG M2 slurry were equilibrated with binding buffer (25 mM HEPES pH 7.4, 125 mM NaCl, 0.05% TWEEN-20). The resin was pelleted and excess buffer removed. 60 μL of fresh binding buffer was re-added, followed by addition of 15 pmol (2.5 μL ofa6 μM solution) of purified FLAG-UBR5 protein and incubated on a rotating wheel at 4°C for 60–90 minutes. The resin was pelleted, excess buffer removed, and 150 μL fresh binding buffer (supplemented with 50 μM ligand of interest or DMSO) added, followed by 150 pmol protein (binding partner protein of interest) and incubated for another 60 minutes. The resin was pelleted, excess buffer removed and washed with 400 μL of binding buffer (supplemented with ligand of interest or DMSO), and this process was repeated three times. The resin was pelleted, excess buffer removed and 45 μL of binding buffer supplemented with 1 mg/mL 3xFLAG peptide was added to elute proteins over 30 minutes on a rotating wheel at room temperature. The resin was pelleted, and 40 μL of the supernatant was collected and mixed with 12 μL of 5xSDS gel loading buffer. 6 μL of these samples were applied to SDS-PAGE on a 4–20% gradient gel (Biorad). The gel was transferred to a nitrocellulose membrane using the Trans-Blot Turbo Transfer System (Biorad). Following blocking with 5% skim milk solution in TBST, primary antibodies targeting the NR proteins were added in TBST and incubated overnight at 4 °C. The following day, membranes were washed thrice with TBST buffer and incubated for 45 minutes with fluorescent secondary antibody (Invitrogen A11357), followed by three more washes with TBST. Imaging was performed on a Licor Odyssey system, scanned at 800 nm.

UBR5-RARA/RXRA = test: In vitro FLAG-UBR5 pull-down of His-tagged RARA/RXRA heterodimer; type: binding, human; details: 50 μM ligand, pull-down, anti-His western; 25 mM HEPES pH 7.4, 125 mM NaCl, 0.05% TWEEN-20
Protocol: The resin was pelleted and excess buffer removed. 60 μL of fresh binding buffer was re-added, followed by addition of 15 pmol (2.5 μL ofa6 μM solution) of purified FLAG-UBR5 protein and incubated on a rotating wheel at 4°C for 60–90 minutes. The resin was pelleted, excess buffer removed, and 150 μL fresh binding buffer (supplemented with 50 μM ligand of interest or DMSO) added, followed by 150 pmol protein (binding partner protein of interest) and incubated for another 60 minutes. The resin was pelleted, excess buffer removed and washed with 400 μL of binding buffer (supplemented with ligand of interest or DMSO), and this process was repeated three times. The resin was pelleted, excess buffer removed and 45 μL of binding buffer supplemented with 1 mg/mL 3xFLAG peptide was added to elute proteins over 30 minutes on a rotating wheel at room temperature. The resin was pelleted, and 40 μL of the supernatant was collected and mixed with 12 μL of 5xSDS gel loading buffer. 6 μL of these samples were applied to SDS-PAGE on a 4–20% gradient gel (Biorad). The gel was transferred to a nitrocellulose membrane using the Trans-Blot Turbo Transfer System (Biorad). Following blocking with 5% skim milk solution in TBST, primary antibodies targeting the NR proteins were added in TBST and incubated overnight at 4 °C. […]

[3] = tested on: progesterone receptor (PGR); test: PGR reporter degradation in U937; type: cell-based, human; details: for PGR degradation, significance: R5020 vs DMSO, n = 3
Protocol: Additional NRs that have well-characterized ligand-induced degradation include vitamin D receptor (VDR),[46] progesterone receptor (PGR),[47] and thyroid receptor beta (THRB).[7]
as §1

[4] = tested on: HR+ HER2- advanced breast cancer; details: cited from earlier work; for clinical trial outcome, phase II: second-line treatment
Description: page 11: Supplemental Table S2: Clinical Development of Selective Estrogen Receptor Degraders (SERDs), related to Figure 6 Clinical Development Status for HR+ HER2- Advanced Compound Side Chain E3 Ligase Breast Cancer Treatment Fulvestrant Long Alkyl RNF111 FDA approved for first-line and second-line treatments1,2 FDA approved for second-line, ESR1-mutated disease Elacestrant (RAD1901) Basic Amino RNF111 treatment3,4; Ongoing phase III trial for first-line treatment (NCT05512364) Ongoing Phase III trial for first-line treatment Camizestrant (AZD9833) Basic Amino RNF111 (NCT04711252, NCT0496493 ...

[5] = tested on: thyroid receptor beta (THRB); test: THRB reporter degradation in U937; type: cell-based, human; details: for THRB degradation, significance: T3 vs DMSO, n = 3
Protocol: as §1

ER [6] = details: ref [17], [53]; cited from earlier work
Description: SERDs are a class of molecules targeting the ER for the treatment of breast cancer. […] Given that UBR5 is similarly recruited to the NR hydrophobic cleft, we hypothesized that fulvestrant and other SERDs may employ a different mechanism for ER degradation. […] One of the best understood SERDs, fulvestrant, drastically remodels the hydrophobic cleft[16],[17] in a manner incompatible with UBR5 or NCOA binding. […] Strikingly, this correlates with clinical utility, hallmarked by the wide use of fulvestrant and recent approval of elacestrant,[53] both of which employ RNF111, in contrast to UBR5 SERDs (Table S2), none of which have been approved for clinical use. The heterogeneity of ER transcriptional pro ...

## CC(F)(F)c1cc(F)ccc1-c1sc2cc(O)ccc2c1Oc1ccc(/C=C/C(=O)O)cc1 [LSZ-102]
ER [1]
  regulated class of ER degradation (RNF111 or UBR5): UBR5 Regulated
ER reporter
  ER reporter degradation: induced ER reporter degradation
[2]
  E3 ligase used for ER degradation: required UBR5 for degradation
  E3 Ligase (Table S2): UBR5

## CC1(C)CC=C(c2cnc3ccccc3c2)c2cc(C(=O)Nc3ccc(C(=O)O)cc3)ccc21 [BMS614]
UBR5-RARA
  binding of RARA to UBR5: prevented complex formation
UBR5-RARA/RXRA
  binding of RARA/RXRA to UBR5: similarly hindered

## CCC(=O)[C@@]1(C)CC[C@H]2[C@@H]3CCC4=CC(=O)CCC4=C3CC[C@@]21C [R5020]
[3]; LUC1 shRNA
  PGR degradation, significance: *** (***p<0.0005)
[3]; LUC2 shRNA
  PGR degradation, significance: * (*p<0.05)
[3]; U937, R5020
  PGR reporter degradation: confirmed degradation
  effect of UBR5 shRNAs on PGR degradation: rescued degradation

## CC1=C(/C=C/C(C)=C\C=C\C(C)=C\C(=O)O)C(C)(C)CCC1 [9-cis RA, 9-cis-retinoic acid]
UBR5-RARA
  binding of RARA to UBR5: robustly induced binding of RARA to UBR5

## CCN(CCCCCOCC(=O)N[C@H](C(=O)N1C[C@H](O)C[C@H]1C(=O)N[C@@H](C)c1ccc(-c2scnc2C)cc1)C(C)(C)C)CCOc1ccc(C(=O)c2c(-c3ccc(O)cc3)sc3cc(O)ccc23)cc1 [ERD-308]
ER reporter
  ER reporter degradation: induced ER reporter degradation
[2]
  E3 ligase used for ER degradation: von Hippel-Lindau (VHL)
  E3 Ligase (Table S2): VHL

## CC1=C(c2cccc(O)c2)[C@H](c2ccc(OCCN3CC(CF)C3)cc2)Oc2ccc(O)cc21 [GDC-0927]
ER reporter
  ER reporter degradation: induced ER reporter degradation
[2]
  E3 ligase used for ER degradation: employed a different E3 ligase, RNF111
  E3 Ligase (Table S2): RNF111

## O=C(O)c1ccc2c(c1)CCCC(c1ccc(Cl)cc1Cl)=C2c1ccc(O[C@H]2CCN(CCCF)C2)cc1 [amcenestrant]
[4]; amcenestrant, first-line treatment, NCT04478266, ref 7 (supplement)
  clinical trial outcome, phase III: Failed primary endpoint phase III trial for first-line
[4]; amcenestrant, NCT04059484, ref 8 (supplement)
  clinical trial outcome, phase II: Failed primary endpoint in
ER [1]
  regulated class of ER degradation (RNF111 or UBR5): RNF111 Regulated
ER reporter
  ER reporter degradation: induced ER reporter degradation
[2]
  E3 ligase used for ER degradation: employed a different E3 ligase, RNF111
  E3 Ligase (Table S2): RNF111

## C[C@@H]1Cc2c([nH]c3ccccc23)[C@@H](c2c(F)cc(NC3CN(CCCF)C3)cc2F)N1CC(F)(F)CO [giredestrant]
[4]; giredestrant, NCT04576455, ref 6 (supplement)
  clinical trial outcome, phase II: Failed primary endpoint in phase II trial
ER [1]
  regulated class of ER degradation (RNF111 or UBR5): RNF111 Regulated
ER reporter
  ER reporter degradation: induced ER reporter degradation
[2]
  E3 ligase used for ER degradation: employed a different E3 ligase, RNF111
  E3 Ligase (Table S2): RNF111

## N[C@@H](Cc1cc(I)c(Oc2cc(I)c(O)c(I)c2)c(I)c1)C(=O)O [levothyroxine [T3], levothyroxine]
[5]; LUC1 shRNA
  THRB degradation, significance: ** (**p<0.005)
[5]; LUC2 shRNA
  THRB degradation, significance: ** (**p<0.005)
[5]; U937, T3
  THRB reporter degradation: confirmed degradation
  UBR5 dependence of THRB degradation: not dependent on UBR5
[5]; UBR5-1 shRNA
  THRB degradation, significance: ** (**p<0.005)
[5]; UBR5-2 shRNA
  THRB degradation, significance: ** (**p<0.005)

## O=C1CC[C@H](N2Cc3cc(N4CCN(CC5CCN(c6ccc([C@@H]7c8ccc(O)cc8CC[C@@H]7c7ccccc7)cc6)CC5)CC4)ccc3C2=O)C(=O)N1 [ARV-471]
ER reporter
  ER reporter degradation: induced ER reporter degradation
[2]
  E3 ligase used for ER degradation: Cereblon (CRBN)
  E3 Ligase (Table S2): CRBN

## C[C@@H]1Cc2c([nH]c3ccccc23)[C@@H](c2c(F)cc(/C=C/C(=O)O)cc2F)N1CC(C)(C)F [AZD-9496]
ER [1]
  regulated class of ER degradation (RNF111 or UBR5): UBR5 Regulated
ER reporter
  ER reporter degradation: induced ER reporter degradation
[2]
  E3 ligase used for ER degradation: required UBR5 for degradation
  E3 Ligase (Table S2): UBR5

## CCNCCc1ccc(CN(CC)c2cc(OC)ccc2[C@@H]2CCc3cc(O)ccc3C2)cc1 [elacestrant]
ER [1]
  regulated class of ER degradation (RNF111 or UBR5): RNF111 Regulated
ER reporter
  ER reporter degradation: induced ER reporter degradation
ER [6]
  ER degradation (literature): lead to ER degradation
[2]
  E3 ligase used for ER degradation: employed a different E3 ligase, RNF111
  E3 Ligase (Table S2): RNF111

## C[C@@H]1Cc2c(ccc3[nH]ncc23)[C@@H](c2ccc(NC3CN(CCCF)C3)cn2)N1CC(F)(F)F [camizestrant]
[4]; camizestrant, NCT04214288, ref 5 (supplement)
  clinical trial outcome, phase II: Successful phase II trial
ER [1]
  regulated class of ER degradation (RNF111 or UBR5): RNF111 Regulated
ER reporter
  ER reporter degradation: induced ER reporter degradation
[2]
  E3 ligase used for ER degradation: employed a different E3 ligase, RNF111
  E3 Ligase (Table S2): RNF111
